Source: patent US7256190B2, “Thiazole compounds useful as inhibitors of protein kinase” (Vertex Pharmaceuticals Incorporated, priority 2001, dated 2007)

Key:
Format in all cases: biochemical
[1] = molecular target: GSK3-β (AA 1-420) (Homo sapiens, UniProt P49841); assay: GSK-3 inhibition assay (coupled enzyme system); settings: 10 μM ATP, 300 μM peptide, 60 nM GSK-3β, 30° C.
Protocol: Compounds were screened for their ability to inhibit GSK3-β (AA 1-420) activity using a standard coupled enzyme system (Fox et al. (1998) Protein Sci. 7, 2249). Reactions were carried out in a solution containing 100 mM HEPES (pH 7.5), 10 mM MgCl2, 25 mM NaCl, 300 μM NADH, 1 mM DTT and 1.5% DMSO. Final substrate concentrations in the assay were 10 μM ATP (Sigma Chemicals, St Louis, Mo.) and 300 μM peptide (HSSPHQS(PO3H2)EDEEE, American Peptide, Sunnyvale, Calif.). Reactions were carried out at 30° C. and 60 nM GSK-3β. Final concentrations of the components of the coupled enzyme system were 2.5 mM phosphoenolpyruvate, 300μM NADH, 30 μg/ml pyruvate kinase and 10 μg/ml lactate dehydrogenase.
An assay stock buffer solution was prepared containing all of the reagents listed above with the exception of ATP and the test compound of interest. 59 μl of the test reaction was placed in a 96 well ½-diameter plate (Corning, Corning, N.Y.) then treated with 1 μl of a 2 mM DMSO stock containing the test compound (final compound concentration 30 μM). The plate was incubated for ˜10 minutes at 30° C. then the reaction initiated by addition of 7 μl of ATP (final concentration 10 μM). Rates of reaction were obtained using a Molecular Devices Spectramax plate reader (Sunnyvale, Calif.) over a 5 minute read time at 30° C.
(§1) The compound numbers correspond to the compound numbers in Table 1.

[2] = molecular target: T1, Aurora2 (Homo sapiens, UniProt O14965); assay: Aurora2 inhibition assay (coupled enzyme assay); settings: 800 μM peptide LRRASLG, 70 nM Aurora2, 30° C.
T1 sequence (O14965 1-403): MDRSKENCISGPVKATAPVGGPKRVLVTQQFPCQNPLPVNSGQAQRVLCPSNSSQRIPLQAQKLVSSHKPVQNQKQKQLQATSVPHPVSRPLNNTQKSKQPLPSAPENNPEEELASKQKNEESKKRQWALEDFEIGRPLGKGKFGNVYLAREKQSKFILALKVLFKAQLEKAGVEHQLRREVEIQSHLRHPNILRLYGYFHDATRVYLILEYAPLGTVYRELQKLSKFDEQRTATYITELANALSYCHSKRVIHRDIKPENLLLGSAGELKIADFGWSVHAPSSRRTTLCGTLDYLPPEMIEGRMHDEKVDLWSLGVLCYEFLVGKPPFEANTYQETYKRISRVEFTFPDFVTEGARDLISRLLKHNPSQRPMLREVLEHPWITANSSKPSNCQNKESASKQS
Protocol: Compounds are screened in the following manner for their ability to inhibit Aurora2 using a standard coupled enzyme assay (Fox et al (1998). Protein Sci 7, 2246). To an assay stock buffer solution containing 0.1M HEPES 7.5, 10 mM MgCl2, 1 mM DTT, 25 mM NaCl, 2.5 mM prosphoenolpyruvate, […], […] pyruvate kinase, […] lactate dehydrogenase, […], and 800 μM peptide (LRRASLG, American Peptide, Sunnyvale, Calif.) is added a DMSO solution of a compound of the present invention to a final concentration of 30 μM. The resulting mixture is incubated at 30° C. for 10 minutes. The reaction was initiated by the addition of 10 μL of Aurora2 stock solution to give a final concentration of 70 nM in the assay. The rates of reaction are obtained by monitoring absorbance at 340 nm over a 5 minute read time at 30° C. using a BioRad Ultramark plate reader (Hercules, Calif.). The IC50 values are determined from the rate data as a function of inhibitor concentration.
as §1

[3] = molecular target: Syk (Homo sapiens, UniProt P43405); assay: Syk inhibition assay (coupled enzyme assay); settings: 200 μM ATP, 4 μM poly Gly-Tyr peptide, 30° C.
Protocol: Reactions were carried out in 100 mM HEPES pH 7.5, 10 mM MgCl2, 25 mM NaCl, 1 mM DTT and 1.5% DMSO. Final substrate .concentrations in the assay were 200 μM ATP (Sigmachemical Co.) and 4 μM poly Gly-Tyr peptide (Sigma Chemical Co.). Assays were carried out at 30° C. and 200 nM Syk. Final concentrations of the components of the coupled enzyme system were 2.5 mM phosphoenolpyruvate, 300 μM NADH, 30 μg/ml pyruvate kinase and 10 μg/ml lactate dehydrogenase.
An assay stock buffer solution was prepared containing all of the reagents listed above, with the exception of Syk, DTT and the test compound of interest. 56 μl of the test reaction was placed in a 96 well plate followed by the addition of 1 μl of 2 mM DMSO stock containing the test compound (final compound concentration 30 μM). […] Rates of reaction were obtained using a BioRad Ultramark plate reader (Hercules, Calif.) over a 5 minute read time at 30° C.
as §1

Chain of GSK3-β (AA 1-420) (P49841 whole entry, the tested form may be a part): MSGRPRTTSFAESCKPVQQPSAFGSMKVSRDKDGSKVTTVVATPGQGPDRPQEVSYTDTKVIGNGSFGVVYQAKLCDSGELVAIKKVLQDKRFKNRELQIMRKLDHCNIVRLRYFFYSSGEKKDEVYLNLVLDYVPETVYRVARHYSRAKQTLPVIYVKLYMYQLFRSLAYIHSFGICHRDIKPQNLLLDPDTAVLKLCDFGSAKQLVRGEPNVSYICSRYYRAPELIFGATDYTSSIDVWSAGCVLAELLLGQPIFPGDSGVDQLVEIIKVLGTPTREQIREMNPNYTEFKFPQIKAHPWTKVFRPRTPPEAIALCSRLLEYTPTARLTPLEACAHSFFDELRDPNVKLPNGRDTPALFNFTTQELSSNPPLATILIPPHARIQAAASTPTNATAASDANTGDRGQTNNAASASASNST

## Oc1ccccc1-c1cccc(Nc2nccc(-c3nccs3)n2)c1 [Compound I-69]
[1]
  Ki: < 100 nM

## CCOc1cccc(-c2cccc(Nc3nccc(-c4nccs4)n3)c2)c1 [Compound I-42]
[1]
  Ki: < 100 nM

## COc1cccc(OC)c1-c1cccc(Nc2nccc(-c3nccs3)n2)c1 [Compound I-51]
[1]
  Ki: 100 to 1000 nM

## Nc1cccc(Oc2cccc(Nc3nccc(-c4nccs4)n3)c2)c1 [Compound I-62]
[2]
  IC50: 500 to 2000 nM
[3]
  IC50: < 500 nM

## Clc1ccc(Cl)c(-c2cccc(Nc3nccc(-c4nccs4)n3)c2)c1 [Compound I-21]
[1]
  Ki: > 1000 nM

## Oc1cccc(-c2cccc(Nc3nccc(-c4nccs4)n3)c2)c1 [Compound I-72]
[1]
  Ki: < 100 nM

## COc1ccccc1COc1cccc(Nc2nccc(-c3nccs3)n2)c1 [Compound I-44]
[1]
  Ki: < 100 nM
[3]
  IC50: < 500 nM

## Fc1ccc(-c2cccc(Nc3nccc(-c4nccs4)n3)c2)c(F)c1 [Compound I-18]
[1]
  Ki: < 100 nM

## Fc1ccccc1-c1cccc(Nc2nccc(-c3nccs3)n2)c1 [Compound I-6]
[1]
  Ki: < 100 nM

## N#Cc1ccc(-c2cccc(Nc3nccc(-c4nccs4)n3)c2)cc1 [Compound I-48]
[1]
  Ki: < 100 nM

## c1ccc(COc2ccc(Nc3nccc(-c4nccs4)n3)cc2)cc1 [Compound I-10]
[1]
  Ki: > 1000 nM
[2]
  IC50: > 2000 nM

## FC(F)(F)c1cccc(-c2cccc(Nc3nccc(-c4nccs4)n3)c2)c1 [Compound I-30]
[1]
  Ki: < 100 nM

## Cc1cnc(Nc2cccc(-c3cccc(N)c3)c2)nc1-c1nccs1 [Compound I-90]
[1]
  Ki: < 100 nM

## c1cncc(Oc2cccc(Nc3nccc(-c4nccs4)n3)c2)c1 [Compound I-50]
[2]
  IC50: 500 to 2000 nM
[3]
  IC50: < 500 nM

## Cc1ccccc1COc1cccc(Nc2nccc(-c3nccs3)n2)c1 [Compound I-115]
[1]
  Ki: < 100 nM
[3]
  IC50: > 2000 nM

## COc1cc(F)cc(-c2cccc(Nc3nccc(-c4nccs4)n3)c2)c1 [Compound I-15]
[1]
  Ki: < 100 nM

## COc1ccc(-c2ccccc2)cc1Nc1nccc(-c2nccs2)n1 [Compound I-96]
[1]
  Ki: > 1000 nM

## CSc1ccc(-c2cccc(Nc3nccc(-c4nccs4)n3)c2)cc1 [Compound I-60]
[1]
  Ki: < 100 nM

## COc1ccc(-c2cccc(Nc3nccc(-c4nccs4)n3)c2)c(OC)c1OC [Compound I-12]
[1]
  Ki: < 100 nM

## Fc1ccccc1COc1cccc(Nc2nccc(-c3nccs3)n2)c1 [Compound I-41]
[1]
  Ki: < 100 nM
[2]
  IC50: > 2000 nM

## Clc1cccc(Nc2nccc(-c3nccs3)n2)n1 [Compound I-28]
[1]
  Ki: < 100 nM
[2]
  IC50: > 2000 nM

## c1cncc(-c2cccc(Nc3nccc(-c4nccs4)n3)c2)c1 [Compound I-63]
[1]
  Ki: < 100 nM

## COc1ccc(Oc2ccccc2)cc1Nc1ncc(C)c(-c2nccs2)n1 [Compound I-117]
[1]
  Ki: > 1000 nM

## Fc1ccc(COc2cccc(Nc3nccc(-c4nccs4)n3)c2)cc1F [Compound I-85]
[1]
  Ki: < 100 nM
[2]
  IC50: > 2000 nM

## COc1ccc(OC)c(-c2cccc(Nc3nccc(-c4nccs4)n3)c2)c1 [Compound I-54]
[1]
  Ki: < 100 nM

## Fc1cccc(COc2cccc(Nc3nccc(-c4nccs4)n3)c2)c1 [Compound I-100]
[1]
  Ki: < 100 nM
[2]
  IC50: > 2000 nM

## Oc1ccc(-c2cccc(Nc3nccc(-c4nccs4)n3)c2)cc1 [Compound I-66]
[1]
  Ki: < 100 nM

## COc1ccc(Nc2nccc(-c3nccs3)n2)cc1Oc1ccc(Cl)cc1 [Compound I-111]
[1]
  Ki: < 100 nM

## c1cc(Nc2nccc(-c3nccs3)n2)cc(-c2ccc3[nH]ccc3c2)c1 [Compound I-78]
[1]
  Ki: < 100 nM

## c1ccc(Oc2cccc(Nc3nccc(-c4nccs4)n3)c2)nc1 [Compound I-53]
[3]
  IC50: 500 to 2000 nM

## N#Cc1cccc(COc2cccc(Nc3nccc(-c4nccs4)n3)c2)c1 [Compound I-79]
[1]
  Ki: < 100 nM
[2]
  IC50: > 2000 nM

## Clc1cccc(-c2cccc(Nc3nccc(-c4nccs4)n3)c2)c1Cl [Compound I-24]
[1]
  Ki: < 100 nM

## FC(F)(F)c1ccccc1-c1cccc(Nc2nccc(-c3nccs3)n2)c1 [Compound I-27]
[1]
  Ki: < 100 nM

## Cc1cnc(Nc2cccc(C(F)(F)F)c2)nc1-c1nccs1 [Compound I-99]
[1]
  Ki: < 100 nM

## Nc1cccc(-c2cccc(Nc3nccc(-c4nccs4)n3)c2)c1 [Compound I-57]
[1]
  Ki: < 100 nM

## COc1ccc(-c2ccccc2)cc1Nc1ncc(C)c(-c2nccs2)n1 [Compound I-93]
[1]
  Ki: > 1000 nM

## Cc1ccc(C)c(-c2cccc(Nc3nccc(-c4nccs4)n3)c2)c1 [Compound I-39]
[1]
  Ki: < 100 nM

## COc1ccc(Nc2nccc(-c3nccs3)n2)cc1Oc1cccc(F)c1 [Compound I-105]
[1]
  Ki: < 100 nM

## COc1ccc(Oc2ccccc2)cc1Nc1nccc(-c2nccs2)n1 [Compound I-114]
[1]
  Ki: > 1000 nM
[2]
  IC50: 500 to 2000 nM

## c1ccc(Oc2ccc(Nc3nccc(-c4nccs4)n3)cc2)cc1 [Compound I-13]
[2]
  IC50: > 2000 nM

## Fc1cc(F)cc(COc2cccc(Nc3nccc(-c4nccs4)n3)c2)c1 [Compound I-103]
[1]
  Ki: < 100 nM
[2]
  IC50: > 2000 nM

## COc1ccc(Nc2nccc(-c3nccs3)n2)cc1 [Compound I-70]
[2]
  IC50: 500 to 2000 nM

## O=[N+]([O-])c1cccc(Nc2cccc(Nc3nccc(-c4nccs4)n3)c2)c1 [Compound I-97]
[2]
  IC50: > 2000 nM

## FC(F)(F)c1ccccc1COc1cccc(Nc2nccc(-c3nccs3)n2)c1 [Compound I-47]
[1]
  Ki: < 100 nM
[3]
  IC50: > 2000 nM

## CN(C)c1ccc(-c2cccc(Nc3nccc(-c4nccs4)n3)c2)cc1 [Compound I-81]
[1]
  Ki: < 100 nM

## CCOc1ccc(-c2cccc(Nc3nccc(-c4nccs4)n3)c2)cc1 [Compound I-33]
[1]
  Ki: < 100 nM

## O=[N+]([O-])c1ccc(Nc2nccc(-c3nccs3)n2)cc1 [Compound I-40]
[1]
  Ki: < 100 nM
[2]
  IC50: > 2000 nM

## Cc1ccccc1-c1cccc(Nc2nccc(-c3nccs3)n2)c1 [Compound I-3]
[1]
  Ki: < 100 nM

## c1cncc(COc2cccc(N(Cc3cccnc3)c3nccc(-c4nccs4)n3)c2)c1 [Compound I-26]
[2]
  IC50: < 500 nM

## c1ccc(COc2cccc(Nc3nccc(-c4nccs4)n3)c2)nc1 [Compound I-20]
[1]
  Ki: < 100 nM
[2]
  IC50: < 500 nM

## Cc1cnc(Nc2cccc(-c3ccc(O)cc3)c2)nc1-c1nccs1 [Compound I-84]
[1]
  Ki: < 100 nM

## CCOc1ccccc1-c1cccc(Nc2nccc(-c3nccs3)n2)c1 [Compound I-36]
[1]
  Ki: 100 to 1000 nM

## CS(=O)(=O)c1ccc(-c2cccc(Nc3nccc(-c4nccs4)n3)c2)cc1 [Compound I-45]
[1]
  Ki: < 100 nM

## c1ccc(Oc2ccc(-c3cccc(Nc4nccc(-c5nccs5)n4)c3)cc2)cc1 [Compound I-9]
[1]
  Ki: < 100 nM

## COc1cc(O)ccc1-c1cccc(Nc2nccc(-c3nccs3)n2)c1 [Compound I-75]
[1]
  Ki: < 100 nM

## COc1ccc(Nc2nccc(-c3nccs3)n2)cc1Oc1cccc(Cl)c1 [Compound I-108]
[1]
  Ki: 100 to 1000 nM

## Cc1cnc(Nc2cccc(-c3cccnc3)c2)nc1-c1nccs1 [Compound I-87]
[1]
  Ki: < 100 nM
